# Measurements taken from article PMC7486940, “Pre-symptomatic Caspase-1 inhibitor delays cognitive decline in a mouse model of Alzheimer disease and aging” (Nature Communications, 2020).
# Columns and labels:
# J20 mice [1] = experiment: Barnes maze, spatial learning and memory; format: in vivo, mouse
# Procedure: VX-765 (Adooq Bioscience, Irvine, CA, USA) was dissolved 5 mg • ml^−1 in 20% cremophor in dH2O[60] (Sigma-Aldrich, ON, Canada) and administered IPWT and J20 mice received three injections per week of either 50 mg • kg^−1 VX-765 or 20% cremophor vehicle for 4 weeks between 2 and 3 months of age. Mice were longitudinally followed starting 4 weeks after the last injection [4-week washout (WO)], then every other month at 12- and 20-week WO (6 and 8 months of age, respectively). Intermediate 8- and 16-week WO periods were also looked at with a smaller number of mice. After each WO period, animals were randomly chosen, independent of behavioural performance, for sacrifice and assigned to either histological or biochemical analysis (Fig. 2a).
# Open-field and novel object recognition (NOR) were measured at all WO periods. The Barnes maze was assessed at 12- and 20-week WO. Open field: Mice were placed in an open-field chamber, composed of a plexiglass box with no ceiling and white floor, and allowed to explore for 5 min. NOR: Mice were pre-exposed to two identical objects in the open-field chamber for 5 min. Two hours after pre-exposure, mice were placed back into the chamber and exposed to one familiar object and one novel object for 5 min (test phase). Mice were exposed to a specific object only once across multiple test sessions. Barnes maze: Learning acquisition (days 1–4)—each mouse was trained to find the target and enter the escape box within 180 s. Four trials per day, ~15 min apart, were performed for 4 consecutive days. Probe (day 5)—a single, 90 s trial was performed on each mouse to measure primary latency and number of errors to reach the blocked target. Target hole location was changed between the two separate test sessions. Behavioural scoring was blinded to mouse genotype and treatment.
# J20 mice [2] = test system: J20 mice; parameters: method as in PMID 30254377; conditions: cited from earlier work
# Casp1 = test system: Casp1; parameters: method as in PMID 30254377; conditions: in vitro Casp1; cited from earlier work
# [3] = J20, 12-week WO, probe 24 h after last training day
structure (smiles),measurement,setting,value
"CCO[C@@H]1OC(=O)C[C@@H]1NC(=O)[C@@H]1CCCN1C(=O)[C@@H](NC(=O)c1ccc(N)c(Cl)c1)C(C)(C)C [VX-765, (S)-1-((S)-2-{[1-(4-amino-3-chloro-phenyl)-methanoyl]-amino}-3,3-dimethyl-butanoyl)-pyrrolidine-2-carboxylic acid ((2R,3S)-2-ethoxy-5-oxo-tetrahydro-furan-3-yl)-amide]",Barnes maze probe preference towards the target area,J20 mice [1]; 12-week WO,"All groups, except the vehicle-treated J20 group, showed a preference towards the target area"
same,Barnes maze training primary latency,"J20 mice [1]; 12-week WO, all groups",did not differ between groups
same,Barnes maze learning acquisition primary errors,"J20 mice [1]; J20, 12-week WO, 50 mg/kg IP 3x/week for 1 month",prevented this learning deficit in J20 mice and reduced the number of errors committed to near WT levels
same,Barnes maze probe primary errors,J20 mice [1]; [3],VX-765 treatment prevented this deficit
same,Barnes maze probe primary latency,J20 mice [1]; [3],did not differ between vehicle- or VX-765-treated J20 and vehicle-treated WT groups
same,Barnes maze learning deficits,"J20 mice [1]; J20, 20-week WO","vehicle-, but not VX-765-treated, J20 mice exhibited learning deficits"
same,Barnes maze probe primary latency and primary errors,"J20 mice [1]; J20, 20-week WO",these deficits were prevented with VX-765 treatment
same,toxicity,J20 mice [2],non-toxic
same,"memory deficits, inflammation, synaptic loss and Aβ accumulation",J20 mice [2]; given at the onset of the J20 mouse symptoms,"reverses spatial and episodic memory deficits, inflammation and synaptic loss, and prevents progressive Aβ accumulation"
same,IC50,Casp1,3.68 nM
